Values after ≈ are worked out from the molar mass of the structure shown.
Key:
[1] = tested on: Trichophyton mentagrophytes; test: Antimicrobial activity against Trichophyton mentagrophytes 445 after 120 hrs by broth microdilution test; format: functional; settings: Trichophyton mentagrophytes, 445, 120 h
Lichtheimia corymbifera [2] = test: Antimicrobial activity against Absidia corymbifera 272 after 48 hrs by broth microdilution test; format: functional; settings: Lichtheimia corymbifera, 272, 48 h
Aspergillus fumigatus [3] = test: Antimicrobial activity against Aspergillus fumigatus 231 after 48 hrs by broth microdilution test; format: functional; settings: Aspergillus fumigatus, 231, 48 h
Trichosporon beigelii [4] = test: Antimicrobial activity against Trichosporon beigelii 1188 after 48 hrs by broth microdilution test; format: functional; settings: Trichosporon beigelii, 1188, 48 h
Nakaseomyces glabratus [5] = test: Antimicrobial activity against Candida glabrata 20/I after 48 hrs by broth microdilution test; format: functional
Pichia kudriavzevii [6] = test: Antimicrobial activity against Candida krusei ATCC 6258 after 48 hrs by broth microdilution test; format: functional; settings: ATCC 6258, 48 h
Candida tropicalis [7] = test: Antimicrobial activity against Candida tropicalis 156 after 48 hrs by broth microdilution test; format: functional; settings: Candida tropicalis, 156, 48 h
[8] = Lipophilicity, log P of compound by RP-HPLC analysis; format: physicochemical
[9] = tested on: Staphylococcus epidermidis; test: Antimicrobial activity against Staphylococcus epidermidis H 6966/08 after 48 hrs by broth microdilution method; format: functional; settings: H 6966/08, 48 h
[10] = tested on: Staphylococcus epidermidis; test: Antimicrobial activity against Staphylococcus epidermidis H 6966/08 after 24 hrs by broth microdilution method; format: functional; settings: H 6966/08, 24 h
Staphylococcus aureus [11] = test: Antimicrobial activity against methicillin-resistant Staphylococcus aureus H 5996/08 after 48 hrs by broth microdilution method; format: functional; settings: H 5996/08, 48 h
Staphylococcus aureus [12] = test: Antimicrobial activity against methicillin-resistant Staphylococcus aureus H 5996/08 after 24 hrs by broth microdilution method; format: functional; settings: H 5996/08, 24 h
Staphylococcus aureus [13] = test: Antimicrobial activity against Staphylococcus aureus CCM 4516/08 after 48 hrs by broth microdilution method; format: functional; settings: CCM 4516/08, 48 h
Staphylococcus aureus [14] = test: Antimicrobial activity against Staphylococcus aureus CCM 4516/08 after 24 hrs by broth microdilution method; format: functional; settings: CCM 4516/08, 24 h
Candida albicans [15] = test: Antimicrobial activity against Candida albicans ATCC 44859 after 48 hrs by broth microdilution test; format: functional; settings: ATCC 44859, 48 h
[16] = tested on: Trichophyton mentagrophytes; test: Antimicrobial activity against Trichophyton mentagrophytes 445 after 72 hrs by broth microdilution test; format: functional; settings: Trichophyton mentagrophytes, 445, 72 h
Lichtheimia corymbifera [17] = test: Antimicrobial activity against Absidia corymbifera 272 after 24 hrs by broth microdilution test; format: functional; settings: Lichtheimia corymbifera, 272, 24 h
Aspergillus fumigatus [18] = test: Antimicrobial activity against Aspergillus fumigatus 231 after 24 hrs by broth microdilution test; format: functional; settings: Aspergillus fumigatus, 231, 24 h
Trichosporon beigelii [19] = test: Antimicrobial activity against Trichosporon beigelii 1188 after 24 hrs by broth microdilution test; format: functional; settings: Trichosporon beigelii, 1188, 24 h
Nakaseomyces glabratus [20] = test: Antimicrobial activity against Candida glabrata 20/I after 24 hrs by broth microdilution test; format: functional
Pichia kudriavzevii [21] = test: Antimicrobial activity against Candida krusei ATCC 6258 after 24 hrs by broth microdilution test; format: functional; settings: ATCC 6258, 24 h
Candida tropicalis [22] = test: Antimicrobial activity against Candida tropicalis 156 after 24 hrs by broth microdilution test; format: functional; settings: Candida tropicalis, 156, 24 h
Candida albicans [23] = test: Antimicrobial activity against Candida albicans ATCC 44859 after 24 hrs by broth microdilution test; format: functional; settings: ATCC 44859, 24 h

SMILES	MIC80 (Trichosporon beigelii [4]) [µM]	MIC80 (Candida tropicalis [7]) [µM]	logP [8]	MIC90 [9] [µM]	MIC90 [10] [µM]	MIC90 (Staphylococcus aureus [11]) [µM]	MIC90 (Staphylococcus aureus [12]) [µM]	MIC90 (Staphylococcus aureus [13]) [µM]	MIC90 (Staphylococcus aureus [14]) [µM]	MIC80 (Candida albicans [15]) [µM]	MIC50 [16] [µM]	MIC50 (Lichtheimia corymbifera [17]) [µM]	MIC50 (Aspergillus fumigatus [18]) [µM]	MIC80 (Trichosporon beigelii [19]) [µM]	MIC80 (Nakaseomyces glabratus [20]) [µM]	MIC80 (Pichia kudriavzevii [21]) [µM]	MIC80 (Candida tropicalis [22]) [µM]	MIC80 (Candida albicans [23]) [µM]	other results
Oc1cccc(/C=C/c2ccc3cccc(O)c3n2)c1	> 125	> 125	3.95	500 (≈ 132 µg/mL)	250 (≈ 65.8 µg/mL)	125 (≈ 32.9 µg/mL)	125 (≈ 32.9 µg/mL)	125 (≈ 32.9 µg/mL)	125 (≈ 32.9 µg/mL)	> 125	> 125	> 125	> 125	> 125	> 125	> 125	> 125	> 125	MIC50 [1]: > 125 µM; MIC50 (Lichtheimia corymbifera [2]): > 125 µM; MIC50 (Aspergillus fumigatus [3]): > 125 µM; MIC80 (Nakaseomyces glabratus [5]): > 125 µM; MIC80 (Pichia kudriavzevii [6]): > 125 µM
Oc1ccc(/C=C/c2ccc3c(Cl)cc(Cl)c(O)c3n2)cc1	> 125	> 125	5.07	62.5 (≈ 20.8 µg/mL)	62.5 (≈ 20.8 µg/mL)	31.2 (≈ 10.4 µg/mL)	31.2 (≈ 10.4 µg/mL)	15.6 (≈ 5.19 µg/mL)	7.81 (≈ 2.59 µg/mL)	> 125									MIC80 (Nakaseomyces glabratus [5]): > 125 µM; MIC80 (Pichia kudriavzevii [6]): > 125 µM
CCOc1ccccc1/C=C/c1ccc2cccc(O)c2n1			4.55	> 500	> 500	> 500	> 500	> 500	> 500		> 500	> 500	> 500	> 500	> 500	> 500	> 500	> 500	
OC(Cn1cncn1)(Cn1cncn1)c1ccc(F)cc1F [FLUCONAZOLE]	0.48 (≈ 0.147 µg/mL)	> 125								0.12 (≈ 0.0368 µg/mL)		> 125	> 125	0.24 (≈ 0.0735 µg/mL)	0.98 (≈ 0.3 µg/mL)		0.12 (≈ 0.0368 µg/mL)	0.06 (≈ 0.0184 µg/mL)	MIC50 (Lichtheimia corymbifera [2]): > 125 µM; MIC50 (Aspergillus fumigatus [3]): > 125 µM
Clc1ccccc1/C=C/c1ccc2cccc(Cl)c2n1			5.85	> 500	> 500	> 500	> 500	> 500	> 500		> 500	> 500	> 500	> 500	> 500	> 500	> 500	> 500	
Oc1cc(O)cc(/C=C/c2ccc3c(Cl)cc(Cl)c(O)c3n2)c1	> 125	> 125	4.68	125 (≈ 43.5 µg/mL)	31.2 (≈ 10.9 µg/mL)	125 (≈ 43.5 µg/mL)	125 (≈ 43.5 µg/mL)	125 (≈ 43.5 µg/mL)	125 (≈ 43.5 µg/mL)	> 125				> 125	> 125	> 125	> 125	> 125	MIC80 (Nakaseomyces glabratus [5]): > 125 µM; MIC80 (Pichia kudriavzevii [6]): > 125 µM
Clc1ccccc1/C=C/c1ccc2ccccc2n1			5.25	> 500	> 500	> 500	> 500	> 500	> 500		> 500	> 500	> 500	> 500	> 500	> 500	> 500	> 500	
Oc1ccccc1/C=C/c1ccc2c(Cl)cc(Cl)c(O)c2n1			5.07																
CCOc1ccc(/C=C/c2ccc3cccc(O)c3n2)cc1			4.55	> 500	> 500	> 500	> 500	> 500	> 500		> 500	> 500	> 500	> 250	> 250	> 500	> 500	> 500	
Oc1cccc2ccc(/C=C/c3ccccc3Cl)nc12			4.9	> 500	> 500	> 500	> 500	> 500	> 500		> 500	> 500	> 500	> 500	> 500	> 500	> 500	> 500	
CCOc1ccc(/C=C/c2ccc3ccccc3n2)cc1			4.61	> 500	> 500	> 500	> 500	> 500	> 500		> 500	> 500	> 500	> 500	> 500	> 500	> 500	> 500	

Reference: ChEMBL document CHEMBL2203120, “Contribution to investigation of antimicrobial activity of styrylquinolines” (Bioorg Med Chem, 2012)
